Test results from paper PMC7571068, “Antiproliferative and Pro-Apoptotic Effect of Uvaol in Human Hepatocarcinoma HepG2 Cells by Affecting G0/G1 Cell Cycle Arrest, ROS Production and AKT/PI3K Signaling Pathway” (Molecules, 2020).
≈ marks a conversion by molar mass, not a printed value.

Assays:
WRL68 cells [1] = assay: MTT cytotoxicity assay; format: cell-based; conditions: Homo sapiens, mean ± SEM (n = 9)
Protocol: (§1) MTT assay was performed as described by Pérez-Jiménez et al.. Briefly, samples containing 200 µL cell suspension (1 × 10^4 cells/well) were cultured in 96 well plates, in triplicate of three populations of the both cell lines. Subsequent to adherence of the cells within 12 h of incubation, Uvaol was added to the wells at a concentration between 0–140 μg/mL and maintained during 24, 48 and 72 h. MTT was dissolved in the medium and added to the wells at a final concentration of 0.5 mg/mL. Following 2 h of incubation, the generated formazan was dissolved in DMSO. Absorbance was measured at 570 nm in a multiplate reader (Bio-tek®, Winooski, VT, USA). The concentrations that caused 20%, 50% and 80% of inhibition of cell viability (IC20, IC50 and IC80) were calculated following the formula: % […] = (A0 − AT)/A0·100, where A0 is the control absorbance (100% of cell viability) and AT is de absorbance of the incubated cells with the different concentrations of uvaol. OriginPro 8 (OriginLab Corporation, Northampton, MA, USA) was used to performance a dose-response analysis by the following formula: y=A1+ A2− A1/1+10^(Log x0−x)p
(§2) In which Logx0 is the center of the curve, p the slope, A1 the lower asymptote and A2 the upper asymptote in the adjustment model described.

HepG2 cells [2] = assay: MTT cytotoxicity assay; format: cell-based, human; conditions: for IC20 / IC50 / IC80: Homo sapiens, mean ± SEM (n = 9)
Protocol: as §1, §2

HepG2 cells [3] = assay: Muse cell cycle assay (flow cytometry); format: cell-based, human; conditions: HepG2, IC50, 24 h
Protocol: (§3) A total of 1.5 × 10^5 cells were seeded per well in 24-well plates for each cell line (quadruplicates for three different populations of each cell line). […] Negative control populations were incubated only with the appropriate culture medium. The samples were analyzed in the Muse^TM Cell Analyzer (Merck-Millipore®, Burlington, MA, USA). The method is based on the analysis of the cell cycle through the discrimination of three populations: cells in phase G0/G1, S or G2/M. For this, the Muse^TM Cell Cycle Kit purchased from Millipore (Billerica, MA, USA) was used following the specification of manufacturer.

WRL68 cells [4] = assay: Muse cell cycle assay (flow cytometry); format: cell-based, human; conditions: WRL68, IC50, 24 h
Protocol: as §3

[5] = test system: AKT/PI3K and ERK1/2/MAPK signaling pathways in HepG2 cells; assay: Muse PI3K/MAPK Dual Pathway activation assay; format: cell-based, human; conditions: HepG2, IC50, 24 h
Protocol: (§4) The Muse® PI3K/MAPK Dual Pathway activation kit purchased from Millipore (Billerica, MA, USA) was employed to examine both the PI3K and MAPK signaling pathways simultaneously using the Muse Cell Analyzer (Merck-Millipore®, Burlington, MA, USA). The protocol followed was performed as the manufacturer instructions. The samples (quadruplicates for three different populations of each cell line) were analyzed in the Muse^TM Cell Analyzer.

[6] = test system: AKT/PI3K and ERK1/2/MAPK signaling pathways in WRL68 cells; assay: Muse PI3K/MAPK Dual Pathway activation assay; format: cell-based, human; conditions: WRL68, IC50, 24 h
Protocol: as §4

HepG2 cells [7] = assay: Morphological changes, optical microscopy; format: cell-based, human; conditions: HepG2, IC50, 24 h
Protocol: (§5) Optical microscopy (Olympus® model CX22LED, Tokyo, Japan) images of the cultures were obtained in the mentioned conditions at 10 and 40 magnifications for the cell line each after 24 h of the treatment’s application.

WRL68 cells [8] = assay: Morphological changes, optical microscopy; format: cell-based, human; conditions: WRL68, IC50, 24 h
Protocol: as §5

lymphoma cells (U937) = test system: lymphoma cells (U937); design: method as in PMID 21142067; conditions: U937, 10 and 100 µM; cited from earlier work
MCF-7 cells = test system: MCF-7 cells; design: method as in PMID 21142067; conditions: MCF-7, 10 and 100 µM; cited from earlier work
MDA-MB-231 line = test system: MDA-MB-231 line; design: method as in PMID 25412049; conditions: cited from earlier work
MCF-7 line = test system: MCF-7 line; design: method as in PMID 21142067; conditions: MCF-7, 44.27 μg/mL, same phase = G0/G1; cited from earlier work

C[C@H]1[C@H](C)CC[C@]2(CO)CC[C@]3(C)C(=CC[C@@H]4[C@@]5(C)CC[C@H](O)C(C)(C)[C@@H]5CC[C@]43C)[C@H]12 [uvaol, urs-12-ene-3,28-diol]
IC20 (WRL68 cells [1]; WRL68, 24 h exposure): 27.6 ± 2.9 µg/mL (≈ 62.3 µM) | IC50 (WRL68 cells [1]; WRL68, 24 h exposure): 54.3 µg/mL (≈ 123 µM) | IC20 (WRL68 cells [1]; WRL68, 48 h exposure): 13.3 ± 0.8 µg/mL (≈ 30 µM) | IC50 (WRL68 cells [1]; WRL68, 48 h exposure): 35.9 ± 0.7 µg/mL (≈ 81.1 µM) | IC80 (WRL68 cells [1]; WRL68, 48 h exposure): 79.8 ± 0.6 µg/mL (≈ 180 µM) | IC20 (WRL68 cells [1]; WRL68, 72 h exposure): 6.8 ± 0.6 µg/mL (≈ 15.4 µM) | IC50 (WRL68 cells [1]; WRL68, 72 h exposure): 19.5 ± 1.1 µg/mL (≈ 44 µM) | IC80 (WRL68 cells [1]; WRL68, 72 h exposure): 47.2 ± 4.3 µg/mL (≈ 107 µM) | IC50 in control cells (WRL68) relative to tumor cells (HepG2) (HepG2 cells [2]; 24 h IC50 WRL68 vs HepG2): more than twice | IC20 (HepG2 cells [2]; HepG2, 24 h exposure): 8.2 ± 1.8 µg/mL (≈ 18.5 µM) | IC50 (HepG2 cells [2]; HepG2, 24 h exposure): 25.2 µg/mL (≈ 56.9 µM) | IC20 (HepG2 cells [2]; HepG2, 48 h exposure): 6.4 ± 0.4 µg/mL (≈ 14.5 µM) | IC50 (HepG2 cells [2]; HepG2, 48 h exposure): 20 ± 0.3 µg/mL (≈ 45.2 µM) | IC80 (HepG2 cells [2]; HepG2, 48 h exposure): 61.7 ± 5.3 µg/mL (≈ 139 µM) | IC20 (HepG2 cells [2]; HepG2, 72 h exposure): 4 ± 0.2 µg/mL (≈ 9.03 µM) | IC50 (HepG2 cells [2]; HepG2, 72 h exposure): 14.1 ± 1 µg/mL (≈ 31.8 µM) | IC80 (HepG2 cells [2]; HepG2, 72 h exposure): 39.2 ± 2.4 µg/mL (≈ 88.5 µM) | change in percentage of cells in G0/G1 phase vs control (HepG2 cells [3]): statistically significant increase | change in percentage of cells in G2/M phase vs control (HepG2 cells [3]): equally significant reduction | change in percentage of cells in S phase vs control (HepG2 cells [3]): No differences were found | change in percentage of cells in G0/G1 phase vs control (WRL68 cells [4]): significant decrease | change in percentage of cells in G2/M phase vs control (WRL68 cells [4]): increase | change in percentage of cells in S phase vs control (WRL68 cells [4]): significant decrease | change in percentage of cells that only activated ERK1/2/MAPK [5]: not altered | decrease in cells that only activated AKT/PI3K [5]: 25% | increase in cells with activated dual pathway (MAPK and PI3K) [5]: 9% | net balance: increase of ERK1/2/MAPK signaling pathway [5]: 9% | net balance: inhibition of AKT/PI3K signaling pathway [5]: 16% | change in percentage of cells in which only ERK1/2/MAPK was activated [6]: not altered | decrease in cells that only activated the AKT/PI3K pathway [6]: 22% | increase in cells that activated the dual pathway (MAPK and PI3K) [6]: 25% | net balance: activation of the ERK1/2/MAPK signaling pathway [6]: 25% | net balance: modification of the PI3K pathway [6]: no modification | cell morphology change (HepG2 cells [7]): slightly more rounded, with very sharp projections and a loss of adhesion to the support | cell morphology change (WRL68 cells [8]): become rounded and have cytoplasmic projections | induction of apoptosis (lymphoma cells (U937)): induced apoptosis | induction of apoptosis (MCF-7 cells): did not show this effect | changes in cell cycle progression (MDA-MB-231 line): did not produce changes in the progression of the cycle | cell cycle arrest (MCF-7 line): arrest in the same phase of the cycle
